Measured values published in patent US8173829B2, “Carbamate stereoisomer” (Sunovion Pharmaceuticals Inc., priority 2007, dated 2012).

Legend:
[1] = target: T1, human recombinant β1 receptors (Homo sapiens, UniProt P08588); experiment: β1 radioligand binding assay; conditions: β1 receptor
T1 construct: expressed in transfected cells; host or cells: CHO cells
Procedure: (§1) βi and β2 Radioligand Binding Assays
(§2) The Ki is calculated from the IC50 and the known KD of the radioligand (Cheng and Prusoff's equation).

[2] = target: T2, human recombinant β2 receptors (Homo sapiens, UniProt P07550); experiment: β2 radioligand binding assay
T2 construct: expressed in transfected cells; host or cells: CHO cells
T2 sequence (P07550 whole entry): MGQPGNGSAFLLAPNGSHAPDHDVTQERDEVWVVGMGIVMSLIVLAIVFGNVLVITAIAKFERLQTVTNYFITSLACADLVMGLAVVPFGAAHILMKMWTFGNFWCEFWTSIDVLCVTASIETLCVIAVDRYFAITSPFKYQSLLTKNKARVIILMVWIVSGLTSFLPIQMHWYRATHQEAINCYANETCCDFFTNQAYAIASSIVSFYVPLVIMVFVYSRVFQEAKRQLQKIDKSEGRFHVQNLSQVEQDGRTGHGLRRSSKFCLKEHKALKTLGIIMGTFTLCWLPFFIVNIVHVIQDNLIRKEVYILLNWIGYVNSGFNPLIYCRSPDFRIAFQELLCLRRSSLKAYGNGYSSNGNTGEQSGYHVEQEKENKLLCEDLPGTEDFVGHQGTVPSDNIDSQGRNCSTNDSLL
Procedure: as §1, §2

[3] = target: T3, human recombinant β2 receptors expressed in CHO cells (Homo sapiens, UniProt P07550); experiment: Intrinsic activity assessment (β2), cAMP production; format: cell-based; conditions: % response relative to a procaterol-induced cAMP increase
T3 construct: expressed in transfected cells; host or cells: CHO cells
T3 sequence (P07550 whole entry): as above
Procedure: Intrinsic Activity Assessment (β2)
The intrinsic activity of a test compound is assessed by evaluating its ability to increase cAMP production from human recombinant β2 receptors expressed in CHO cells. Data are expressed as % response relative to a procaterol-induced cAMP increase.

[4] = target: T4, adrenergic β1 receptors (Cavia porcellus, UniProt H0W3H1); experiment: β1 adrenergic activity (functional), positive chronotropic effect in isolated right atria; set-up: species or system Dunkin Hartley Guinea pigs; conditions: β1 functional assay, at a concentration of 30 μM
T4 construct: from tissue; host or cells: isolated right atria of Dunkin Hartley guinea pigs
T4 sequence (H0W3H1 1-470): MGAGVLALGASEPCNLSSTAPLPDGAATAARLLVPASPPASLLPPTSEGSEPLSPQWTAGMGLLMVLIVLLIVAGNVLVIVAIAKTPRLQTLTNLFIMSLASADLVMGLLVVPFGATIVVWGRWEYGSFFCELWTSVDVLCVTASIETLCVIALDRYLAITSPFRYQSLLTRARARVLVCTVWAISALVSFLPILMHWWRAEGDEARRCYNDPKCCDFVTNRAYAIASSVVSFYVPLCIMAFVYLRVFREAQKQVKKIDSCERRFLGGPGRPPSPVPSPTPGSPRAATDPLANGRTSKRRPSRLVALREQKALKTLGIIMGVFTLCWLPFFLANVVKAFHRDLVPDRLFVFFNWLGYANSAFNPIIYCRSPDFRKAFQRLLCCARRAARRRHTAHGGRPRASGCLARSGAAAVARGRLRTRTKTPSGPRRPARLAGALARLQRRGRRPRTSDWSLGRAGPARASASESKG

[5] = target: T5, adrenergic β2 receptors (Cavia porcellus, UniProt Q8K4Z4); experiment: β2 adrenergic activity (functional), relaxation of spontaneous tone of isolated trachea; set-up: species or system Dunkin Hartley Guinea pigs
T5 construct: from tissue; host or cells: isolated trachea of Dunkin Hartley guinea pigs
T5 sequence (Q8K4Z4 whole entry): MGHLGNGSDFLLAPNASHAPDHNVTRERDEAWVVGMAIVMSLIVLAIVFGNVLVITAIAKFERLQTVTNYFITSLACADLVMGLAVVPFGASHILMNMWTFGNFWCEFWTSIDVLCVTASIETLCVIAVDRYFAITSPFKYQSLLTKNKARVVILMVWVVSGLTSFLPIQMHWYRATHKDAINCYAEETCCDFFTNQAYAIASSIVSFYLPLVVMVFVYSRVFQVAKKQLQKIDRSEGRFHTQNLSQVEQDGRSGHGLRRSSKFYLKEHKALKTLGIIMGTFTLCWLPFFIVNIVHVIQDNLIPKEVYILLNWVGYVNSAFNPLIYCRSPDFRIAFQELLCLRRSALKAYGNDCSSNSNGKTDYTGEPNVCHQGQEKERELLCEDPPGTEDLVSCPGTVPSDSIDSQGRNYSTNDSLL

[6] = Stability in aqueous buffered solutions; format: physicochemical
Procedure: Stability in Aqueous Buffered Solutions
Solution Preparations: For each test compound, the following solutions are prepared. • Solution A is prepared from ˜30 mg of the test compound in 150 mL of 0.005 M citrate buffer, pH 5.0 (˜0.2 mg/mL). • Solution B is prepared as follows: approximately 30 mL aliquot of Solution A is transferred to a separated container and the pH of the solution is adjusted to pH 3.0 with 1 N HCl (˜0.2 mL). • Solution C is prepared as follows: approximately 30 mL aliquot of Solution A is transferred to a separated container and the pH of the solution is adjusted to pH ˜8.0 with 1 N NaOH (˜0.2 mL). • Note: Because the volume of 1 N HCl or 1 N NaOH used for adjusting pH was negligible, the concentration of test compound in Solutions A, B and C were the same.
Storage SCHEME • As soon as the above solutions were prepared, aliquots of each solution were transferred into 11 vials, of which 9 vials are stored at −20° C., and one each is stored at 30° C. and 40° C., respectively. • At each interval listed below, two vials are removed from −20° C. storage, and stored at 30° C. and 40° C., respectively. • The corresponding weeks under the storage condition (30° C. or 40° C.) are shown in the table below.
On Week 12, the last vial stored at −20° C. is removed and warmed up to the room temperature, which is the Day 0 Solution.
Sample Analysis: On Week 12, all solutions are assayed by an HPLC method using the Day 0 Solution at pH 5 as a standard solution. The test compounds were assayed by HPLC with UV detection (refer to Table 1 for method conditions).

T1 sequence (P08588 whole entry): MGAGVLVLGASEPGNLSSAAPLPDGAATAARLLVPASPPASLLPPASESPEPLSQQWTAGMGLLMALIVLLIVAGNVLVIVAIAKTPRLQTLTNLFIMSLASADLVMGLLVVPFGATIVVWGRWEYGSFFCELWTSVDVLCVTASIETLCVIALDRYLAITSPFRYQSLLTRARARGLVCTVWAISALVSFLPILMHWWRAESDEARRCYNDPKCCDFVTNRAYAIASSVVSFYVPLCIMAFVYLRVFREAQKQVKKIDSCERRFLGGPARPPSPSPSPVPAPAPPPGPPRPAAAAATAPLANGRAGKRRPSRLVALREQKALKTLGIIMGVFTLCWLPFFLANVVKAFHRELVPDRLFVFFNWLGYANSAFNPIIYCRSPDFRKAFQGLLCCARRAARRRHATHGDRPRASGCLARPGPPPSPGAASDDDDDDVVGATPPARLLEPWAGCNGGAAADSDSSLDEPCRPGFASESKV

COC(=O)Nc1cc([C@H](O)CN[C@H](C)Cc2ccc(O)cc2)ccc1O [Example 1, Carbamic acid, [2-hydroxy-5-[(1S)-1-hydroxy-2-[[(1R)-2-(4-hydroxyphenyl)-1-methylethyl]amino]ethyl]-phenyl]-, methyl ester]
inhibition at 20 µM ([1]; at a concentration of 20 μM, read-out: inhibition of specific binding): 44% | Ki ([1]; displacement of [125I]-cyanopidolol, CHO cells): > 10000 nM | β1/β2 binding ratio ([2]; ratio of Ki β1 to Ki β2): > 10 | Ki ([2]; β2 receptor, displacement of [3H]-CGP-12177, CHO cells): 990 nM | Emax [3]: 79% | increase in heart rate [4]: 20% | β1/β2 functional ratio ([5]; ratio of EC50 β1 to EC50 β2): > 484 | EC50 ([5]; β2, isolated trachea, guinea pig): 62 nM | % of Initial Concentration (0.19847 mg/mL) in pH 5.0 ([6]; pH 3.0, 30° C., 0 wk): 98.31% | % of Initial Concentration (0.19847 mg/mL) in pH 5.0 ([6]; pH 3.0, 30° C., 1 wk): 99.95% | % of Initial Concentration (0.19847 mg/mL) in pH 5.0 ([6]; pH 3.0, 30° C., 2 wk): 99.12% | % of Initial Concentration (0.19847 mg/mL) in pH 5.0 ([6]; pH 3.0, 30° C., 4 wk): 100.91% | % of Initial Concentration (0.19847 mg/mL) in pH 5.0 ([6]; pH 3.0, 30° C., 8 wk): 101.16% | % of Initial Concentration (0.19847 mg/mL) in pH 5.0 ([6]; pH 3.0, 30° C., 12 wk): 101.54% | % of Initial Concentration (0.19847 mg/mL) in pH 5.0 ([6]; pH 3.0, 40° C., 0 wk): 98.31% | % of Initial Concentration (0.19847 mg/mL) in pH 5.0 ([6]; pH 3.0, 40° C., 1 wk): 98.87% | % of Initial Concentration (0.19847 mg/mL) in pH 5.0 ([6]; pH 3.0, 40° C., 2 wk): 100.33% | % of Initial Concentration (0.19847 mg/mL) in pH 5.0 ([6]; pH 3.0, 40° C., 4 wk): 105.71% | % of Initial Concentration (0.19847 mg/mL) in pH 5.0 ([6]; pH 3.0, 40° C., 8 wk): 106.72% | % of Initial Concentration (0.19847 mg/mL) in pH 5.0 ([6]; pH 3.0, 40° C., 12 wk): 106.51% | time for which found to be very stable ([6]; pH 3 or 5, stored at 30° C.): at least 12 weeks | % of Initial Concentration (0.19847 mg/mL) in pH 5.0 ([6]; pH 5.0, 30° C., 0 wk): 100.20% | % of Initial Concentration (0.19847 mg/mL) in pH 5.0 ([6]; pH 5.0, 30° C., 1 wk): 99.68% | % of Initial Concentration (0.19847 mg/mL) in pH 5.0 ([6]; pH 5.0, 30° C., 2 wk): 101.08% | % of Initial Concentration (0.19847 mg/mL) in pH 5.0 ([6]; pH 5.0, 30° C., 4 wk): 101.59% | % of Initial Concentration (0.19847 mg/mL) in pH 5.0 ([6]; pH 5.0, 30° C., 8 wk): 105.28% | % of Initial Concentration (0.19847 mg/mL) in pH 5.0 ([6]; pH 5.0, 30° C., 12 wk): 106.61% | % of Initial Concentration (0.19847 mg/mL) in pH 5.0 ([6]; pH 5.0, 40° C., 0 wk): 100.20% | % of Initial Concentration (0.19847 mg/mL) in pH 5.0 ([6]; pH 5.0, 40° C., 1 wk): 100.40% | % of Initial Concentration (0.19847 mg/mL) in pH 5.0 ([6]; pH 5.0, 40° C., 2 wk): 101.07% | % of Initial Concentration (0.19847 mg/mL) in pH 5.0 ([6]; pH 5.0, 40° C., 4 wk): 102.09% | % of Initial Concentration (0.19847 mg/mL) in pH 5.0 ([6]; pH 5.0, 40° C., 8 wk): 104.88% | % of Initial Concentration (0.19847 mg/mL) in pH 5.0 ([6]; pH 5.0, 40° C., 12 wk): 106.74% | % of Initial Concentration (0.19847 mg/mL) in pH 5.0 ([6]; ~pH 8, 30° C., 0 wk): 97.78% | % of Initial Concentration (0.19847 mg/mL) in pH 5.0 ([6]; ~pH 8, 30° C., 1 wk): 69.33% | % of Initial Concentration (0.19847 mg/mL) in pH 5.0 ([6]; ~pH 8, 30° C., 2 wk): 50.77% | % of Initial Concentration (0.19847 mg/mL) in pH 5.0 ([6]; ~pH 8, 30° C., 4 wk): 27.72% | % of Initial Concentration (0.19847 mg/mL) in pH 5.0 ([6]; ~pH 8, 30° C., 8 wk): 6.96% | % of Initial Concentration (0.19847 mg/mL) in pH 5.0 ([6]; ~pH 8, 30° C., 12 wk): 1.24% | % of Initial Concentration (0.19847 mg/mL) in pH 5.0 ([6]; ~pH 8, 40° C., 0 wk): 97.78% | % of Initial Concentration (0.19847 mg/mL) in pH 5.0 ([6]; ~pH 8, 40° C., 1 wk): 30.18% | % of Initial Concentration (0.19847 mg/mL) in pH 5.0 ([6]; ~pH 8, 40° C., 2 wk): 8.85% | % of Initial Concentration (0.19847 mg/mL) in pH 5.0 ([6]; ~pH 8, 40° C., 4 wk): 0.52% | % of Initial Concentration (0.19847 mg/mL) in pH 5.0 ([6]; ~pH 8, 40° C., 8 wk): 0% | % of Initial Concentration (0.19847 mg/mL) in pH 5.0 ([6]; ~pH 8, 40° C., 12 wk): 0%
